Measured values as given in EP0237516A1, “Benzyl-pyrimidine derivatives, process for their preparation and compositions containing them” (COMPAGNIE ROUSSELOT, Société Anonyme:, priority 1986, dated 1987).
Converted amounts (≈) assume the structure as drawn. Where two headings read alike, the source gives them in different places.

What was measured:
Escherichia coli = experiment: MIC determination by serial dilution on Mueller-Hinton agar, trimethoprim-sensitive strains; type: cell-based; conditions: isethionates, read-out: CMI
Description: (§1) A cet effet, on a déterminé l'activité bactériostatique par la méthode des antibiogrammes par dilution en milieu gélosé (milieu de MUELLER-HINTON déshydraté) et par diffusion en milieu gélosé.
(§2) On a utilisé le composé à étudier selon une gamme de concentrations de 0,625 à 640 µg/ml (progression de raison 2) à partir de solutions-mères titrant 640 µg/ml à 1280 µg/ml selon la solubilité du composé, toutes les dilutions ultérieures ayant été réalisées dans un mélange méthanol/eau à 20%.
(§3) On a procédé sur milieu gélosé de MUELLER-HINTON déshydraté, par la méthode des dilutions sériées, les concentrations finales en composé à étudier s'échelonnant de 0,0625 à 32 ou 64 µg/ml.
(§4) A cet effet, on ensemence des boîtes de PETRI à l'aide d'un inoculateur multiple (inoculum de 5 x 10³ à 1 x 10⁴ unités formant colonies par spot d'inoculation) et on enregistre le résultat après 18 h à 37°C en ne tenant pas compte des micro-colonies qui se développent parfois ni de la présence de moins de 4 colonies d'aspect normal.

Listeria monocytogenes = experiment: as above; type: cell-based; conditions: isethionates; for MIC: 18 h, Listeria monocytogenes 485, TMP-sensitive, read-out: CMI
Description: as §1, §2, §3, §4

Serratia marcescens = experiment: as above; type: cell-based; conditions: 18 h; Serratia marcescens 56644; isethionates; read-out: CMI
Description: as §1, §2, §3, §4

Staphylococcus aureus = experiment: as above; type: cell-based; conditions: isethionates, read-out: CMI
Description: as §1, §2, §3, §4

[1] = tested on: 73 souches de bacilles à Gram -; experiment: Activity against Gram-negative bacilli, count of resistant strains; type: cell-based; conditions: number of resistant strains out of 73 Gram-negative bacilli strains
Source text: (§5) L'action du composé de l'Exemple 21 a été étudiée comparativement à l'iséthionate de triméthoprime vis-à-vis de 73 souches de bacilles à Gram -. Des résultats trouvés, on a pu conclure que 33 souches étaient résistantes au sel de triméthoprime et 65 souches étaient résistantes au composé de l'Exemple 21.

bacilles à Gram - = experiment: Activity in association with sulfamethoxazole; type: cell-based
Source text: as §5
Par contre, si on associe chacun de ces composés au sulfaméthoxazole, le spectre d'activité de l'association composé de l'Exemple 21/-sulfaméthoxazole est similaire à celui de l'association de triméthoprime/ sulfaméthoxazole.

[2] = tested on: souches de Staphylococcus aureus résistant à la triméthoprime; experiment: MIC determination by serial dilution on Mueller-Hinton agar; type: cell-based; conditions: 18 h, compounds as isethionate, read-out: CMI
[3] = tested on: souches de Staphylococcus aureus résistant à la triméthoprime; experiment: as above; type: cell-based; conditions: 18 h, from hospitalised patients, compounds as free base, read-out: CMI
Description: as §1, §2, §3, §4
Les composés sous forme basique, des Exemples 1 et 4 ont été étudiés comparativement à la triméthoprime (TMP) à l'égard de 4 souches provenant de malades hospitalisés.
A cet effet, on a solubilisé les composés à étudier sous forme basique dans un mélange comprenant 9 ml d'eau distillée, 1 ml de diméthylformamide et quelques gouttes d'acide iséthionique.

[4] = tested on: souches de Staphylococcus aureus résistant à la triméthoprime; experiment: Bacteriostatic activity by disc diffusion on Mueller-Hinton agar; type: cell-based; conditions: 5 µg per disc, free base, read-out: Diamètre d'inhibition
Description: On utilise à cet effet le milieu gélosé de MUELLER-HINTON que l'on ensemence par inondation à partir d'une suspension bactérienne titrant 5 x 10⁶ à 1 x 10⁷ unités formant colonies par ml. On imprègne les disques (disque de 6 mm de diamètre de SCHLEICHER et SCHULL) avec 20 µl d'une solution de chaque composé à étudier de façon à obtenir une charge de 5 µg par disque. A titre de contrôle lors de chaque manipulation, on charge également un disque avec 5 µg de triméthoprime. On néglige également dans ce test les microcolonies qui peuvent apparaître à l'intérieur des zones d'inhibition.
On a obtenu les résultats suivants exprimés en mm d'inhibition, avec des composés de l'invention sous forme basique comparativement à la triméthoprime. Ces résultats ont été enregistrés vis-à-vis de souches de Staphylococcus aureus résistant à la triméthoprime.

[5] = Acute toxicity, intravenous; conditions: mouse, in vivo; mice, groups of 5, intravenous route; read-out: DL₅₀
Description: La toxicité aiguë des composés de l'invention a été déterminée sur des lots de 5 souris par voie intraveineuse. On a ainsi trouvé que la DL₅₀du composé de l'Exemple 9, selon cette voie d'administration, est de 157,4 mg/kg.

[6] = ATCC25922, 18 h, Escherichia coli ATCC 25922
[7] = Listeria monocytogenes 378, TMP-sensitive
[8] = Listeria monocytogenes 5921, TMP-sensitive
[9] = Listeria monocytogenes 6777, TMP-sensitive
[10] = ATCC6338, 18 h, Staphylococcus aureus ATCC 6338, TMP-sensitive
[11] = ATCC25923, 18 h, Staphylococcus aureus ATCC 25923, TMP-sensitive
[12] = strain No. 23543, TMP-resistant
[13] = strain No. 33274, TMP-resistant
[14] = strain No. 40314, TMP-resistant
[15] = strain No. 57760, TMP-resistant
[16] = 18 h, Staphylococcus aureus 18839, TMP-sensitive

Compound	MIC (Escherichia coli; 18 h, Escherichia coli 33430)	MIC (Escherichia coli; [6])	MIC (Listeria monocytogenes)	CMI (Listeria monocytogenes; [7])	MIC (Serratia marcescens)	MIC (Staphylococcus aureus; [10])	MIC (Staphylococcus aureus; [11])	MIC ([2]; strain No. 82, TMP-resistant)	MIC ([2]; strain No. 87, TMP-resistant)	MIC ([2]; strain No. 101, TMP-resistant)	MIC ([2]; strain No. 102, TMP-resistant)	MIC ([2]; strain No. 107, TMP-resistant)	MIC [3, 12]	MIC [3, 13]	MIC [3, 14]	MIC [3, 15]	zone of inhibition at 5 µg/disc [4, 12]	zone of inhibition at 5 µg/disc [4, 13]	zone of inhibition at 5 µg/disc [4, 14]	zone of inhibition at 5 µg/disc [4, 15]	further results
COc1cc(Cc2cnc(N)nc2N)c(Br)cc1OC1CCCC1 [Ex. 21, Iséthionate de diamino-2,4 (bromo-2 cyclopentyloxy-4 méthoxy-5 benzyl)-5 pyrimidine]	16 µg/mL (≈ 40.7 µM)	32 µg/mL (≈ 81.4 µM)	0.06 µg/mL (≈ 0.153 µM)	0,06 µg/ml	16 µg/mL (≈ 40.7 µM)	0.06 µg/mL (≈ 0.153 µM)	0.5 µg/mL (≈ 1.27 µM)	1 µg/mL (≈ 2.54 µM)	1 µg/mL (≈ 2.54 µM)	2 µg/mL (≈ 5.09 µM)	1 µg/mL (≈ 2.54 µM)	4 µg/mL (≈ 10.2 µM)	–	–	–	–	–	–	–	–	CMI (Listeria monocytogenes; [8]): 0,06 µg/ml; CMI (Listeria monocytogenes; [9]): 0,06 µg/ml; souches résistantes [1]: 65 souches; potentialisation du sulfaméthoxazole (bacilles à Gram -; compared with the trimethoprim salt): potentialise aussi bien le sulfaméthoxazole que ne le fait le sel de triméthoprime; spectre d'activité de l'association (bacilles à Gram -; in association with sulfaméthoxazole, compared with the association triméthoprime/sulfaméthoxazole): similaire; MIC ([2]; strain No. 109, TMP-resistant): 0.5 µg/mL (≈ 1.27 µM)
CCOc1cc(I)c(Cc2cnc(N)nc2N)cc1OC [Ex. 1, diamino-2,4 (iodo-2 éthoxy-4 méthoxy-5 benzyl)-5 pyrimidine]	–	–	–	–	–	–	–	–	–	–	–	–	2 µg/mL (≈ 5 µM)	< 0.06 µg/mL	0.12 µg/mL (≈ 0.3 µM)	1 µg/mL (≈ 2.5 µM)	19 mm	32 mm	32 mm	24 mm	–
COc1cc(Cc2cnc(N)nc2N)c(Br)cc1OC1CCCCC1 [Ex. 24, Iséthionate de diamino-2,4 (bromo-2 cyclohexyloxy-4 méthoxy-5 benzyl)-5 pyrimidine]	> 64 µg/mL	> 64 µg/mL	0.06 µg/mL (≈ 0.147 µM)	0,06 µg/ml	> 64 µg/mL	0.06 µg/mL (≈ 0.147 µM)	–	0.5 µg/mL (≈ 1.23 µM)	1 µg/mL (≈ 2.46 µM)	0.5 µg/mL (≈ 1.23 µM)	0.5 µg/mL (≈ 1.23 µM)	–	–	–	–	–	–	–	–	–	CMI (Listeria monocytogenes; [8]): 0,06 µg/ml; CMI (Listeria monocytogenes; [9]): 0,06 µg/ml; MIC (Staphylococcus aureus; [16]): 0.06 µg/mL (≈ 0.147 µM)
COc1cc(Cc2cnc(N)nc2N)ccc1OC1CCCC1 [Composé X, reference compound]	> 64 µg/mL	> 64 µg/mL	0.25 µg/mL (≈ 0.795 µM)	0,25 µg/ml	32 µg/mL (≈ 102 µM)	0.25 µg/mL (≈ 0.795 µM)	1 µg/mL (≈ 3.18 µM)	32 µg/mL (≈ 102 µM)	8 µg/mL (≈ 25.4 µM)	32 µg/mL (≈ 102 µM)	32 µg/mL (≈ 102 µM)	–	–	–	–	–	–	–	–	–	MIC (Staphylococcus aureus; [16]): 0.5 µg/mL (≈ 1.59 µM)
COc1cc(Cc2cnc(N)nc2N)c(I)cc1OC1CCCC1 [Ex. 4, Diamino-2,4 (iodo-2 cyclopentyloxy-4 méthoxy-5 benzyl)-5 pyrimidine]	–	–	–	–	–	–	–	–	–	–	–	–	2 µg/mL (≈ 4.54 µM)	0.25 µg/mL (≈ 0.568 µM)	< 0.06 µg/mL	2 µg/mL (≈ 4.54 µM)	19 mm	29 mm	35 mm	20 mm	–
CCOc1cc(I)c(Cc2cnc(N)nc2N)cc1OCC [Exemple 9, Lactobionate de diamino-2,4 (iodo-2 diéthoxy-4,5 benzyl)-5 pyrimidine]	–	–	–	–	–	–	–	–	–	–	–	–	–	–	–	–	–	–	–	–	LD50 [5]: 157 mg/kg
COc1cc(Cc2cnc(N)nc2N)cc(OC)c1OC [Iséthionate de TMP, iséthionate de triméthoprime, reference compound]	8 µg/mL (≈ 27.6 µM)	4 µg/mL (≈ 13.8 µM)	–	–	2 µg/mL (≈ 6.89 µM)	0.06 µg/mL (≈ 0.207 µM)	0.25 µg/mL (≈ 0.861 µM)	16 µg/mL (≈ 55.1 µM)	8 µg/mL (≈ 27.6 µM)	16 µg/mL (≈ 55.1 µM)	16 µg/mL (≈ 55.1 µM)	64 µg/mL (≈ 220 µM)	–	–	–	–	–	–	–	–	souches résistantes [1]: 33 souches; MIC ([2]; strain No. 109, TMP-resistant): 8 µg/mL (≈ 27.6 µM)
COc1cc(Cc2cnc(N)nc2N)c(I)cc1OC1CCCC1 [Ex. 18, Iséthionate de diamino-2,4 (iodo-2 cyclopentyloxy-4 méthoxy-5 benzyl)-5 pyrimidine]	–	–	–	–	–	–	–	2 µg/mL (≈ 4.54 µM)	2 µg/mL (≈ 4.54 µM)	–	4 µg/mL (≈ 9.09 µM)	4 µg/mL (≈ 9.09 µM)	–	–	–	–	–	–	–	–	–
COc1cc(Cc2cnc(N)nc2N)cc(OC)c1OC [TMP, diamino-2,4 (triméthoxy-3,4,5 benzyl)-5 pyrimidine, reference compound]	–	–	–	–	–	–	–	–	–	–	–	–	16 µg/mL (≈ 55.1 µM)	> 64 µg/mL	64 µg/mL (≈ 220 µM)	> 64 µg/mL	0 mm	0 mm	0 mm	0 mm	–
